Reference: patent US20110201023A1, “MANNOSE 6-PHOSPHATE-BINDING ANTIBODIES AND THEIR USES” (UNIVERSITATSKLINKUM HAMBURGEPPENDORF, priority 2008, published 2011)

Columns and labels:
[1] = test system: scFv M6P-1 conjugated beads / [125I]ASA (human arylsulfatase A); assay: Immunoprecipitation of [125I]ASA with scFv M6P-1 conjugated beads; format: binding
Method: Monomeric or dimeric scFv M6P-1 (about 1 mg/ml in PBS, pH 7.2) isolated by gel filtration (see above) was chemically immobilized to AminoLink Plus Coupling gel beads (Pierce, USA) following the suppliers instructions (1 mg scFv M6P-1 was coupled to 2 ml of settled beads). Human arylsulfatase A (ASA)(kindly provided by Dr. […]; Institute for Biochemistry, University of Bielefeld, Germany) was purified by affinity chromatography from media of BHK cells which overexpress the enzyme as described by Sommerlade et al. (1994) Biochem. J. 297, 123-130 and iodinated with IODO-GEN (Pierce) according to the manufacturer's instructions yielding [^125I]ASA with a specific activity of 2 μCi/μg. [^125I]ASA (400,000 cpm) was incubated with 50 μl scFv M6P-1 conjugated beads in 10 mM phosphate buffered saline pH 7.4 containing 0.05% Triton X-100 in a final volume of 0.5 ml in the absence or presence of increasing concentrations of Man6P for 10 h at 4° C. Subsequently, the beads were spun down at 1,200×g for 20 sec, and the supernatant was removed. The beads were washed three times with ice-cold binding buffer, twice with 1 mM phosphate buffered saline pH 7.4, and solubilized in SDS sample buffer. After removal of the beads, the supernatants were separated by SDS-PAGE (10% acrylamide), and the [^125I]ASA was visualized by autoradiography using Kodak films. The intensity of the [^125I]-labeled polypeptides was evaluated by densitometry. Alternatively, the [^125I]-labeled polypeptides were excised from the dried gel and counted in a γ-counter (Wizard 1470, Wallac, Turku, Finland).

scFv M6P-1 = assay: ELISA inhibition study: binding of scFv M6P-1 to immobilized PMP-BSA; parameters: species or system rabbit; conditions: for inhibition of the binding of scFv M6P-1 to PMP-BSA: even at high concentrations (0.01 to 100 mM tested); for IC50: scFv 0.6 μg/ml preincubated 1 h at 37° C. with 0.01 to 100 mM inhibitor, 45 pmol/cup PMP-BSA, read-out: 50% inhibition (IC50 value) of scFv M6P-1 binding to PMP-BSA
Method: ELISA was performed according to the protocol published in Phage-Display: A Laboratory Manual, Cold Spring Harbor Laboratory Press, New York (2001), protocol 19.8, pages 19.29-19.31. For ELISA using monoclonal phage or soluble scFv, PMP-BSA was immobilized by addition of 2.25 pmol neoglycoconjugate (45 pmol PMP ligand, solution in 50 mM carbonate buffer, pH 9.2) to each cup of the ELISA plates (MaxiSorp, Nunc) and overnight incubation at 4° C. Phages were detected using an anti-M13 monoclonal antibody (mAb) HRP-conjugate (GE Healthcare, Freiburg, Germany) and diammonium 2,2′-azino-bis(3-ethylbenzothiazoline-6-sulfonate (AzBTS-(NH4)2, Sigma-Aldrich) as substrate. For scFv-ELISA against PMP-BSA, purified scFv was added at a starting concentration of 5 μg/ml. Bound scFv was detected by incubation with anti-c-myc mAb (gift from Dr. C. R. MacKenzie, NRC of Canada, Ottawa, Canada) and HRP-conjugated goat-anti-mouse IgG H+L (Dianova, Hamburg, Germany). For ELISA inhibition studies, 45 pmoles PMP-BSA were immobilized on ELISA plates. Monomeric scFv M6P-1 was freshly prepared by gelfiltration (see above). Antibody fragment scFv (0.6 μg/ml final concentration) was preincubated for 1 h at 37° C. with or without 0.01 to 100 mM of mannose, glucose, glucose-6-phosphate (Glc6P), Fru1P, or Man6P. 50 μl scFv M6P-1 were added to PMP-BSA (45 pmol/cup ligand concentration). Bound scFv M6P-1 was quantified after incubation (i) with an antibody directed against the c-myc tag of the antibody scFv M6P-1 and (ii) a HRP-conjugated goat-anti-mouse H/L antibody. The […] reaction was measured spectrophotometrically at OD405. All data were measured in quadruplicates and the standard deviation from the mean is indicated. The data were analyzed using Origin version 6.0 software (MicroCal, Northampton, USA) and fitted to a 4 parameter logistic function. The data obtained for inhibition by Man6P and Fru1P were globally fitted to the four replicate data sets, each separately.

PMP-BSA = assay: Phage ELISA against PMP-BSA; format: binding; conditions: 1:3 (v/v) dilutions of phage
Method: The reactivity of the enriched polyclonal phage was tested in an ELISA checkerboard titration against different concentrations of PMP-BSA (3-100 pmol/cup calculated for PMP concentration). At 50 pmol/cup reactivity of the polyclonal phage was observed selectively for PMP-BSA but not for BSA. BstOI (Promega GmbH, Germany) restriction digest of 20 colony PCR products indicated the presence of 7 different clones (4× type A, 10× type B, 2× type C and 1× types D-G). Twelve colonies representing the different types of sequences (5× type B, 2× type A, 1× each of types C-G) were selected for phage production and 1:3 (v/v) dilutions of phage were tested in ELISA against PMP-BSA. […]
ELISA was performed according to the protocol published in Phage-Display: A Laboratory Manual, Cold Spring Harbor Laboratory Press, New York (2001), protocol 19.8, pages 19.29-19.31. […] Phages were detected using an anti-M13 monoclonal antibody (mAb) HRP-conjugate (GE Healthcare, Freiburg, Germany) and diammonium 2,2′-azino-bis(3-ethylbenzothiazoline-6-sulfonate (AzBTS-(NH4)2, Sigma-Aldrich) as substrate. For scFv-ELISA against PMP-BSA, purified scFv was added at a starting concentration of 5 μg/ml. Bound scFv was detected by incubation with anti-c-myc mAb (gift from Dr. C. R. MacKenzie, NRC of Canada, Ottawa, Canada) and HRP-conjugated goat-anti-mouse IgG H+L (Dianova, Hamburg, Germany).

[2] = Isothermal titration microcalorimetry; conditions: dimeric scFv M6P-1 in PBS pH 7.2; 10 mM Man6P injected; read-out: Kd for the binding of scFv M6P-1 to Man6P
Method: The comparison of IC50 values allows the ranking of different ligands according to their relative affinities, however, the absolute affinities in terms of Kd can not be obtained. Therefore, isothermal titration microcalorimetry measurements using Man6P as a ligand were performed. Purified dimeric scFv M6P-1 obtained after gel filtration (both a monomer and a dimer fraction are obtained) was concentrated in Centriprep YM-10 (Millipore) to a final concentration of 2.7 mg/ml in PBS, pH 7.2 and dialysed for 1 h at 20° C. against 500 ml of PBS. The same dialysis buffer was used for preparation of a 10 mM solution of Man6P (Na^+ salt, Sigma-Aldrich). Microcalorimetric experiments were performed on an MCS isothermal titration calorimeter (Microcal Inc., Northampton, Mass., USA). The microcalorimeter cell was filled with the antibody solution (volume=1.5 ml) and Man6P in dialysis buffer loaded into the syringe of the microcalorimeter. Both solutions were thoroughly degassed prior to loading. After temperature equilibration, the ligand was injected into the cell in 4 μl portions and the evolved heat measured with the first injection (1 μl) not considered for data analysis. […] Dissociation constants were determined using the MicroCal Origin version 2.9 analysis software and non-linear least squares curve fitting (1 set of binding sites).

## O=C[C@H](O)[C@@H](O)[C@H](O)[C@H](O)COP(=O)(O)O [Glc6P, glucose 6-phosphate]
[1]; 5 mM
  effect on binding of [125I]-ASA to the antibody beads: no effect
scFv M6P-1
  inhibition of the binding of scFv M6P-1 to PMP-BSA: Neither

## O=P(O)(O)OC[C@@]1(O)OC[C@@H](O)[C@@H](O)[C@@H]1O [Fru1P, β-D-fructopyranose-1-phosphate]
scFv M6P-1
  IC50: 1100 µM

## O=C[C@@H](O)[C@@H](O)[C@H](O)[C@H](O)CO [mannose]
scFv M6P-1
  inhibition of the binding of scFv M6P-1 to PMP-BSA: Neither

## O=C[C@@H](O)[C@@H](O)[C@H](O)[C@H](O)COP(=O)(O)O [Man6P, mannose 6-phosphate]
[1]; Man6P in a concentration of more than 2.5 mM
  inhibition of binding of [125I]-ASA to the antibody beads: completely inhibited
[1]; calculated from densitometric evaluation of autoradiographs or radioactivity in excised bands
  Ki: 100 µM
scFv M6P-1
  IC50: 2300 µM

B1: scFv M6P-1: recombinant rabbit single-chain antibody fragment which specifically binds mannose 6-phosphate; VL SEQ ID NO:7, VH SEQ ID NO:8 (antibody, listed as Oryctolagus cuniculus, V domains shown)
VH: QSVKESEGDLVKPGASLTLTCKASGFDFTWYTMNWVRQAPGKGLEWIACIGAGVYGSNYYASWAKGRFTISKASSTTVTLQMTSLTVADTATYFCARDGINGGYDIWGPGTLVTVSS
VL: ELVMTQTESPVSAAVGGTVTIKCQSSQSVYNNRLAWYQQKPGQRPKLLIYSASTLASGVPSRFKGSGSGTQFTLTISDLEWGDAATYYCHGGYRSNDDRYAFSGGTELEIL
modifications: scFv linker not given
PMP-BSA
  reactivity of monoclonal phage in ELISA against PMP-BSA: reacted
[1]; 10 h at 4° C., absence of Man6P
  total offered [125I]-ASA bound specifically to the scFv M6P-1 conjugated beads: 20-25%
[2]
  Kd: 28 µM
